Data reported in PubChem BioAssay (NCI).
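Compound exposure: 48 hours, 5 concentrations, 96-well plates. TGI denotes the concentration required for complete inhibition of growth.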

Experiments:
Experiment in all cases: DTP human tumour cell line panel, 48 h
[1] = system: SF-268 CNS
[2] = system: CAKI-1 renal
[3] = system: U251 CNS
[4] = system: HT29 colon
[5] = system: BT-549 breast
[6] = system: EKVX NSCLC
[7] = system: CCRF-CEM leukemia
[8] = system: PC-3 prostate
[9] = system: NCI-H522 lung
[10] = system: ACHN renal

Structure (SMILES) | TGI [1] [µM] | TGI [2] [µM] | TGI [3] [µM] | TGI [4] [µM] | TGI [5] [µM] | TGI [6] [µM] | TGI [7] [µM] | TGI [8] [µM] | TGI [9] [µM] | TGI [10] [µM]
Cc1c2c(c(O)c3c(O)cccc13)C(=O)C1(O)C(O)=C(C(=O)NCNc3ccc(C(N)=O)cn3)C(=O)C(N(C)C)C1C2 (configuration not stated) | 79.7 | 48.4 | 18.5 | > 100 | 15.5 | > 100 | 8.31 | 30.7 |  | 
O=C1c2ccccc2-c2nnc3c(c21)-c1ccccc1C3 | > 100 | > 100 | > 100 | > 100 |  | > 100 | > 100 | > 100 | > 100 | 84.6
COC1CC(COCc2ccccc2)CC(OC)O1 (configuration not stated) | > 100 | > 100 |  | > 100 |  | > 100 | 0.44 |  | > 100 | > 100
CC[C@@]1(C)CCC2c3ccc(O)cc3CC[C@H]2C1C (some centres not stated) | 30.1 | 35.7 | 30.9 | 34.1 | 33.8 | 34 | 33.4 | 34 | 36.1 | 32.7
CCOC(=O)C1=NN(c2ccc([N+](=O)[O-])cc2)[C@@]2(C)C[C@]3(c4ccccc4)N(c4ccc([N+](=O)[O-])cc4)N=C(C(=O)OCC)N3c3ccccc3N12 | > 100 | > 100 | > 100 | > 100 | > 100 | > 100 | > 100 | > 100 | > 100 | > 100
CC(=O)NC1(c2cc3ccccc3s2)CCCCCC1 | 40.9 | > 100 | > 100 | > 100 | > 100 | 57.3 | 52.6 | 60.8 | 39.1 | > 100
Cc1cccc2c1c(=O)c1c(O)c3c(cc1n2C)OC(C)(C)C=C3 | > 10 | > 10 | > 10 | > 10 | > 10 | > 10 | > 10 | > 10 | > 10 | > 10
COC1CN(C)C(=Nc2cccc3ccccc23)S1 (configuration not stated) | > 10 | > 10 | > 10 | > 10 | > 10 |  | > 10 | > 10 | > 10 | > 10
Cc1cc(/C=C/c2cc[n+](C)c3ccccc23)c(O)c2ncccc12 | 11 | 27.6 | 13.5 | 14.6 |  | 20 | > 37.7 |  | 11.6 | 16.4
COc1ccc(C2SCC(=O)N2NC(=O)c2ccc(NC(C)=O)cc2)c(OC)c1 (configuration not stated) | > 100 |  | > 100 | > 100 | > 100 | > 100 |  |  |  | > 100
Cc1c(N2CCN(C)CC2)nc2ccc(Cl)cc2c1-c1ccccc1 | > 100 | 41.6 | 33.1 | 27.7 |  | 34.1 | 42.2 |  | 38.6 | 57.7
CC(=O)OCC1OC(n2c(-c3ccccc3)c(C(C)=O)c(-c3cccc4ccccc34)c(C#N)c2=S)C(OC(C)=O)C(OC(C)=O)C1OC(C)=O (configuration not stated) | > 100 |  | > 100 | > 100 |  | > 100 | > 100 | > 100 | > 100 | > 100
CC1=C(O)C(=O)C2C(=O)C1C1Cc3ccccc3C21 (configuration not stated) | > 100 | > 100 | > 100 | > 100 |  | > 100 | > 100 |  | > 100 | > 100
CC(=O)Nc1ccc2c3c(cc(O)c2c1)N(C(=O)CCCCCCC(=O)N1CC(CCl)c2c1cc(O)c1cc(NC(C)=O)ccc21)CC3CCl (configuration not stated) | 0.464 | 0.894 |  | > 100 | 0.0914 | 0.475 |  | 1.13 | 0.0695 | 0.0345
CCOC(=O)C1(C(=O)OCC)OC(C)=NC1(C(=O)OC)C(=O)OC | > 100 | > 100 | > 100 | > 100 | > 31.6 | > 100 | > 100 | > 100 |  | > 100
O=C(Nc1ccc2[nH]c(C(=O)N3CC(CCl)c4c3cc([N+](=O)[O-])c3ccccc43)cc2c1)Nc1ccc2[nH]c(C(=O)N3CC(CCl)c4c3cc([N+](=O)[O-])c3ccccc43)cc2c1 (configuration not stated) | > 100 | > 100 | > 100 |  | > 100 | > 100 | 36.9 | > 100 | > 100 | > 100
OC(c1ccc(C(F)(F)F)cc1)C(F)(F)c1nc2ccccc2o1 (configuration not stated) | > 100 | > 100 | > 100 | > 100 | > 100 | > 100 | > 100 | > 100 |  | > 100
CC(C)NC(=O)N(Nc1ccccc1)C(C)(C)C |  | > 100 | > 100 | > 100 | > 100 | > 100 | > 100 | > 100 |  | > 100
O=C1C(=O)N(c2cccc(C(F)(F)F)c2)C(=S)N1c1ccccc1 | > 100 | 79.4 | > 100 | > 100 |  | > 100 | > 100 | > 100 | 28 | 30.6
CC1SCc2nc3ccccc3n21 (configuration not stated) | > 100 | > 100 | > 100 | > 100 |  | > 100 | > 100 | > 100 | > 100 | > 100
CCOc1ccc(N/C(=C(/C(Cl)=C(/Cl)N2CCCCC2)[N+](=O)[O-])n2nnc3ccccc32)cc1 | 37.4 | 28.4 | 30.8 |  | 34.6 | 36.9 |  | 26.1 | 22 | 36
CC1=C(c2ccccc2)NC(=S)C(C)C(c2ccccc2)=N1 (configuration not stated) | > 100 | > 100 | > 100 | > 100 | > 100 | > 100 | 47.1 |  |  | > 100
CN(C)C(c1ccccc1)C1COC2Cc3ccccc3C1O2 (configuration not stated) | > 100 | > 100 | > 100 | > 100 |  | > 100 | > 100 | > 100 | > 100 | > 100
